How the values were obtained:
[1] = target: Cholecystokinin receptor type A (Homo sapiens) (UniProt P32238); experiment: CCK1 (CCKA) (h) Eurofins-Cerep binding assay; design: ligand concentration 0.08 nM; conditions: filed as agonist, Compound concentration 10.0 uM
[2] = target: 5'-AMP-activated protein kinase catalytic subunit alpha-2 (Homo sapiens) (UniProt P54646); conditions: Compound concentration 1000.0 nM
[3] = target: Mitotic checkpoint serine/threonine-protein kinase BUB1 (Homo sapiens) (UniProt O43683); conditions: Compound concentration 1000.0 nM
[4] = target: Cyclin-dependent kinase 7 (Homo sapiens) (UniProt P50613); conditions: Compound concentration 1000.0 nM
[5] = target: Casein kinase I isoform alpha-like (Homo sapiens) (UniProt Q8N752); conditions: Compound concentration 1000.0 nM
[6] = target: Death-associated protein kinase 3 (Homo sapiens) (UniProt O43293); conditions: Compound concentration 1000.0 nM
[7] = test system: Receptor-type tyrosine-protein kinase FLT3 (Homo sapiens), P36888 [K663Q]; conditions: Compound concentration 1000.0 nM
[8] = test system: Receptor-type tyrosine-protein kinase FLT3 (Homo sapiens), P36888 [R834Q]; conditions: Compound concentration 1000.0 nM
[9] = target: Homeodomain-interacting protein kinase 4 (Homo sapiens) (UniProt Q8NE63); conditions: Compound concentration 1000.0 nM
[10] = target: Serine/threonine-protein kinase ICK (Homo sapiens) (UniProt Q9UPZ9); conditions: Compound concentration 1000.0 nM
[11] = target: Insulin-like growth factor 1 receptor (Homo sapiens) (UniProt P08069); conditions: Compound concentration 1000.0 nM
[12] = target: Serine/threonine-protein kinase STK11 (Homo sapiens) (UniProt Q15831); conditions: Compound concentration 1000.0 nM
[13] = target: MAP kinase-activated protein kinase 2 (Homo sapiens) (UniProt P49137); conditions: Compound concentration 1000.0 nM
Chain of MAP kinase-activated protein kinase 2 (Homo sapiens) (P49137 whole entry, looked up): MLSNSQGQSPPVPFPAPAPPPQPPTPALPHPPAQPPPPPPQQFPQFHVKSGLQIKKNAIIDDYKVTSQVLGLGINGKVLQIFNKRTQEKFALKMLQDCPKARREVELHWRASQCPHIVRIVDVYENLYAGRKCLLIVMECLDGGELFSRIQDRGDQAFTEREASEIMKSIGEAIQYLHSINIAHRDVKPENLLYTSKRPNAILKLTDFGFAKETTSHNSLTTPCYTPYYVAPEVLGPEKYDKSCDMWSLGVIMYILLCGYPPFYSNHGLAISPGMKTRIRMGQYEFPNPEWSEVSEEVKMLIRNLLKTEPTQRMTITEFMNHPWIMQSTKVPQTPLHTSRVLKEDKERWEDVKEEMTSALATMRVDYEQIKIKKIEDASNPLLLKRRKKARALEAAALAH

[14] = target: MAP/microtubule affinity-regulating kinase 3 (Homo sapiens) (UniProt P27448); conditions: Compound concentration 1000.0 nM
[15] = target: Dual specificity mitogen-activated protein kinase kinase 7 (Homo sapiens) (UniProt O14733); conditions: Compound concentration 1000.0 nM
[16] = target: Serine/threonine-protein kinase Nek9 (Homo sapiens) (UniProt Q8TD19); conditions: Compound concentration 1000.0 nM
[17] = target: Platelet-derived growth factor receptor alpha (Homo sapiens) (UniProt P16234); conditions: Compound concentration 1000.0 nM
[18] = target: Cyclin-dependent kinase 2 homolog (Plasmodium falciparum (isolate 3D7)) (UniProt P61075); conditions: Compound concentration 1000.0 nM
Chain of Cyclin-dependent kinase 2 homolog (Plasmodium falciparum (isolate 3D7)) (P61075 whole entry, canonical isoform): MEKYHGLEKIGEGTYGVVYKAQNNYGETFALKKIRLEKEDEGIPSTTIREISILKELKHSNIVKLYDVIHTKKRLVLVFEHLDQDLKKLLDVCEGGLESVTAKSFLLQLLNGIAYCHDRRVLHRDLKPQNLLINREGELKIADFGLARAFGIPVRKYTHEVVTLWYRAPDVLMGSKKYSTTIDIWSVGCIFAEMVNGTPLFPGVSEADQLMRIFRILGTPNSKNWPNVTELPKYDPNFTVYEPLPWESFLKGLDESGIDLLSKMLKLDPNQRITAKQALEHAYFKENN

[19] = test system: Phosphatidylinositol 4,5-bisphosphate 3-kinase catalytic subunit alpha isoform (Homo sapiens), P42336 [H1047L]; conditions: Compound concentration 1000.0 nM
Chain of Phosphatidylinositol 4,5-bisphosphate 3-kinase catalytic subunit alpha isoform (Homo sapiens), P42336 [H1047L] (P42336 whole entry H1047L, canonical isoform): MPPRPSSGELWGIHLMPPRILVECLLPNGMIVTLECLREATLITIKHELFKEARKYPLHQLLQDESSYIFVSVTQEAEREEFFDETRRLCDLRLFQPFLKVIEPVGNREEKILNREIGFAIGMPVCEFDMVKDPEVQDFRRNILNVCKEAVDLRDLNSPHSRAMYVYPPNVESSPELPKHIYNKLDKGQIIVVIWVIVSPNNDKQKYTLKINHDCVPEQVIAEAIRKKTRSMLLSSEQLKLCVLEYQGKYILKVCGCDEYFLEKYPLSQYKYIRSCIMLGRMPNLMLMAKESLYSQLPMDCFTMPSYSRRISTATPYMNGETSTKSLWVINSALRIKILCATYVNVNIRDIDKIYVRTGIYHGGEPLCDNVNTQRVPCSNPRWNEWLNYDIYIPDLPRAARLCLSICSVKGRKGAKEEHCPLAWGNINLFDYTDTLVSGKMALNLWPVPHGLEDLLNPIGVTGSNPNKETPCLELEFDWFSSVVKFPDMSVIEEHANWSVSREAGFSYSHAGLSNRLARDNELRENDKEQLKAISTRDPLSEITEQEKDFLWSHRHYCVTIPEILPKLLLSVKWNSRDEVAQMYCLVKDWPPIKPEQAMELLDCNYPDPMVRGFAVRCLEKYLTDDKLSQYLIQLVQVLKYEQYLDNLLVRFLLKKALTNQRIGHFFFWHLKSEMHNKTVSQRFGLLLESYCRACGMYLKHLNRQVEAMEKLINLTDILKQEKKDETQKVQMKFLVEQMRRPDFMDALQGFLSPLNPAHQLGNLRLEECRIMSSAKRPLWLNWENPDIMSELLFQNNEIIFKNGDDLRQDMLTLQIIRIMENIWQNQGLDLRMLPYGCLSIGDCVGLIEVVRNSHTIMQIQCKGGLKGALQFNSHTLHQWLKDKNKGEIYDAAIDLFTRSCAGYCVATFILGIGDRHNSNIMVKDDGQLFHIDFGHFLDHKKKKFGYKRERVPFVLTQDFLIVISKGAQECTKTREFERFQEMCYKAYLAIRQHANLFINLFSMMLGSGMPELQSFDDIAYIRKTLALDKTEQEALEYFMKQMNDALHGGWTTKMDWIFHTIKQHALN

[20] = test system: Phosphatidylinositol 4,5-bisphosphate 3-kinase catalytic subunit alpha isoform (Homo sapiens), P42336 [M1043I]; conditions: Compound concentration 1000.0 nM
[21] = target: Phosphatidylinositol 4,5-bisphosphate 3-kinase catalytic subunit delta isoform (Homo sapiens) (UniProt O00329); conditions: Compound concentration 1000.0 nM
[22] = target: 1-phosphatidylinositol 3-phosphate 5-kinase (Homo sapiens) (UniProt Q9Y2I7); conditions: Compound concentration 1000.0 nM
Chain of 1-phosphatidylinositol 3-phosphate 5-kinase (Homo sapiens) (Q9Y2I7 whole entry): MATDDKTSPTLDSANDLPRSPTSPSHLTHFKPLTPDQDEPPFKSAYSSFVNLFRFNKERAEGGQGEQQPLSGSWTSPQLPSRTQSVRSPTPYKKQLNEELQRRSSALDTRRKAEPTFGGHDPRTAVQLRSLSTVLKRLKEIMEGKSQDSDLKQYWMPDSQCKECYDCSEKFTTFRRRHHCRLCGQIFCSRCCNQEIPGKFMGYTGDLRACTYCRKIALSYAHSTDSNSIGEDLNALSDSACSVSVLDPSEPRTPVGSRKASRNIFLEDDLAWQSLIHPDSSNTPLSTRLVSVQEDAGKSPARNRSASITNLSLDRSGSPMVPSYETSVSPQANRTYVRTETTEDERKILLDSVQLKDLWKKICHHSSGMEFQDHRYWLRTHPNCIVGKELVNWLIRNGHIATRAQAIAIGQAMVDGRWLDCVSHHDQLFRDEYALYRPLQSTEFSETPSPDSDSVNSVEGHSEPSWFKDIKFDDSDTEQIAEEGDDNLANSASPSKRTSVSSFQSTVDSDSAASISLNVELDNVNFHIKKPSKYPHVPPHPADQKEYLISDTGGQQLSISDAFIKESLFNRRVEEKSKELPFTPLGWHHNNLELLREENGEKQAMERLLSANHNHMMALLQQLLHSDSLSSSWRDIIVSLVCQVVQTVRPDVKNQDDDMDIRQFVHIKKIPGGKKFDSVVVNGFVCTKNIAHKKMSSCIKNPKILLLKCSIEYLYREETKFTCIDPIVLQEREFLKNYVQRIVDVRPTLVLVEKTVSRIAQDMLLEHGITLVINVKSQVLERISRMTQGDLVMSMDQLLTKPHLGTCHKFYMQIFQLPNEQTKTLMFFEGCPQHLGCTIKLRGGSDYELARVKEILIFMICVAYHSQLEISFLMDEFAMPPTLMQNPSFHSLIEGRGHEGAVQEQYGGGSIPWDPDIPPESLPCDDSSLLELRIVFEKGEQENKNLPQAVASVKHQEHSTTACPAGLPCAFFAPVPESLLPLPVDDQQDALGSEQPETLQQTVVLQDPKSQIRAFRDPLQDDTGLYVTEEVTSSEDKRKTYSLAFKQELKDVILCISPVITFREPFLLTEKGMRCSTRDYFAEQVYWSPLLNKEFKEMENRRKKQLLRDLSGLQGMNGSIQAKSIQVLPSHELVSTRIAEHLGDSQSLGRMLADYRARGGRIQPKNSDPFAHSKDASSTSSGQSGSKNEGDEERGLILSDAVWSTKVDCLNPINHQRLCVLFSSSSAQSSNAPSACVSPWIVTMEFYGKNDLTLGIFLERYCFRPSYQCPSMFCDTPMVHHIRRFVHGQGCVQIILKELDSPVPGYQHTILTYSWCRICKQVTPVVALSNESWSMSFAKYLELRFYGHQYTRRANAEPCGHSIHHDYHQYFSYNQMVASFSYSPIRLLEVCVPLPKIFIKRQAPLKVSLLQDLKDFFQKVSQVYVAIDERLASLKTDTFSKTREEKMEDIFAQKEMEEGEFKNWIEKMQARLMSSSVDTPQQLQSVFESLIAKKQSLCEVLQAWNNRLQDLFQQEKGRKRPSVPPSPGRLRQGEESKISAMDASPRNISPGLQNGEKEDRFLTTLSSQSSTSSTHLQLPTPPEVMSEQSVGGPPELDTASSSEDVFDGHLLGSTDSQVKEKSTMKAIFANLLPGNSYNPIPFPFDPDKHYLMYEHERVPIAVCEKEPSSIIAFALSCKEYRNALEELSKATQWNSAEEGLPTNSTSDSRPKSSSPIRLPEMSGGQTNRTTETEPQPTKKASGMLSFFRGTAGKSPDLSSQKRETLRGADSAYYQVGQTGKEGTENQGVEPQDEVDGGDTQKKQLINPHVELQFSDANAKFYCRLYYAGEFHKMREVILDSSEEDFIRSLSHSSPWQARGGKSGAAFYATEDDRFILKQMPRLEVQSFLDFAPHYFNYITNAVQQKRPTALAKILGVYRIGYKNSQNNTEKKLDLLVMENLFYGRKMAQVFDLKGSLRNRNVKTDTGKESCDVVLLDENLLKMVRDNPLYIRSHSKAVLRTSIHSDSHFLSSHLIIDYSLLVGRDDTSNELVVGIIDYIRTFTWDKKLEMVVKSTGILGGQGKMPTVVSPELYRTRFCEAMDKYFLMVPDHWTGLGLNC

[23] = target: Protein kinase C theta type (Homo sapiens) (UniProt Q04759); conditions: Compound concentration 1000.0 nM
Chain of Protein kinase C theta type (Homo sapiens) (Q04759 whole entry, looked up): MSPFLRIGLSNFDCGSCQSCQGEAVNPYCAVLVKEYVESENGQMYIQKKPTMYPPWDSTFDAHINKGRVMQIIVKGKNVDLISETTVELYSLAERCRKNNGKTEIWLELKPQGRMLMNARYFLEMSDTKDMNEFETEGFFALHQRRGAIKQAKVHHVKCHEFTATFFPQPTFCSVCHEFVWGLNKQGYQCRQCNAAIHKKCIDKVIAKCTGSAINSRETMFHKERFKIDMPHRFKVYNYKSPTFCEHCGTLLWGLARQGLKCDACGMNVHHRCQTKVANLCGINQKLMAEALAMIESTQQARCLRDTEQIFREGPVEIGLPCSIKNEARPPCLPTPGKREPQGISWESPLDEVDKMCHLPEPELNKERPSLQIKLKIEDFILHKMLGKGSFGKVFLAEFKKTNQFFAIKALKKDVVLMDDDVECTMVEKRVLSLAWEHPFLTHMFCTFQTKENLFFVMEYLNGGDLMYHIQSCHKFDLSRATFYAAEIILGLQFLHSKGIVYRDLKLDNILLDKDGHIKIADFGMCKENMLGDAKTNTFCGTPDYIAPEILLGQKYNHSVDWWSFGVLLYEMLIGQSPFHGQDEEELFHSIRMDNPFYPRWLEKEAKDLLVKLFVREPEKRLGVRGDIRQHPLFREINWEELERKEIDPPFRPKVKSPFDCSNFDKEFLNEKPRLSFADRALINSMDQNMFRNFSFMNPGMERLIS

[24] = target: Serine/threonine-protein kinase D3 (Homo sapiens) (UniProt O94806); conditions: Compound concentration 1000.0 nM
[25] = target: Serine/threonine-protein kinase TAO1 (Homo sapiens) (UniProt Q7L7X3); conditions: Compound concentration 1000.0 nM
[26] = target: Serine/threonine-protein kinase TAO2 (Homo sapiens) (UniProt Q9UL54); conditions: Compound concentration 1000.0 nM
[27] = target: Testis-specific serine/threonine-protein kinase 3 (Homo sapiens) (UniProt Q96PN8); conditions: Compound concentration 1000.0 nM
[28] = target: 5-hydroxytryptamine receptor 1D (Homo sapiens) (UniProt P28221); conditions: Compound concentration 10.0 uM
[29] = target: D(1A) dopamine receptor (Homo sapiens) (UniProt P21728); conditions: Compound concentration 10.0 uM
[30] = target: T1, Muscarinic acetylcholine receptor M1 (Homo sapiens) (UniProt P11229); conditions: Compound concentration 10.0 uM
T1 sequence (whole entry): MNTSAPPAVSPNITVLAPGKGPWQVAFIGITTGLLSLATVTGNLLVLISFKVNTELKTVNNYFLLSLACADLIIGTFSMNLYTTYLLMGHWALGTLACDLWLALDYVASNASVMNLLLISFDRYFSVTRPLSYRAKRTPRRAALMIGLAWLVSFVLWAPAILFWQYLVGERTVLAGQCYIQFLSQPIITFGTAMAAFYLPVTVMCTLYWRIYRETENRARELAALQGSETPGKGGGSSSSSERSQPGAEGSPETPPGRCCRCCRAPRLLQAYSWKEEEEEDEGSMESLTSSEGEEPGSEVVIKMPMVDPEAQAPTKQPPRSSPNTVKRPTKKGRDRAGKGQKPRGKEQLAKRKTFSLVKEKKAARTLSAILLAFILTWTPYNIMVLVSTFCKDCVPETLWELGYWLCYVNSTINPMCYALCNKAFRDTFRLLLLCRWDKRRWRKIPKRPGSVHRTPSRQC

[31] = target: T2, Muscarinic acetylcholine receptor M5 (Homo sapiens) (UniProt P08912); conditions: Compound concentration 10.0 uM
T2 sequence (whole entry): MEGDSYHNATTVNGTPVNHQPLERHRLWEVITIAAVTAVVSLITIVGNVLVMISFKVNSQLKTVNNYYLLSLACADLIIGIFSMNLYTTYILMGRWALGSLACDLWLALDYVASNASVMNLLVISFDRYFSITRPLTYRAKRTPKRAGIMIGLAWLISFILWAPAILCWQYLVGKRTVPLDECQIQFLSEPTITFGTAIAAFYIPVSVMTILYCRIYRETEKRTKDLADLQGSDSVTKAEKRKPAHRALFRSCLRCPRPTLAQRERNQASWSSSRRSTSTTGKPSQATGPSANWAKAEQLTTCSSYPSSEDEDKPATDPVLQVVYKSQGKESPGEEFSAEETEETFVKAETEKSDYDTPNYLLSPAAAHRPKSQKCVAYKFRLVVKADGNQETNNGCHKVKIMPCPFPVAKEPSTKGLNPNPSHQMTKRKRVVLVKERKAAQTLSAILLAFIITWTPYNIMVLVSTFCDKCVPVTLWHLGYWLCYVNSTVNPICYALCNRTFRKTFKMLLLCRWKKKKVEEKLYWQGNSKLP

Chain of Cholecystokinin receptor type A (Homo sapiens) (P32238 whole entry): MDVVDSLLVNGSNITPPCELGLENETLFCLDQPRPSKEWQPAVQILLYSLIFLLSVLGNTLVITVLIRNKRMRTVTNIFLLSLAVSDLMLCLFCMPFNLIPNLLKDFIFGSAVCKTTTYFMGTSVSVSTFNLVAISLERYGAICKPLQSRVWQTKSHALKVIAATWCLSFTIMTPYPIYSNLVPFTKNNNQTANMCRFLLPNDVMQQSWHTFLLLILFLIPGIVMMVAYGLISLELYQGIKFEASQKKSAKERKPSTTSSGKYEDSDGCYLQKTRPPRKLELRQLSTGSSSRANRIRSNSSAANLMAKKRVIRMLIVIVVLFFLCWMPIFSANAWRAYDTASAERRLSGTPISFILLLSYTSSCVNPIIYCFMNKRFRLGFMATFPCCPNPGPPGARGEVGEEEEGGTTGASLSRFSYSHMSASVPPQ

SMILES	% Inhibition of Control Specific Binding (Mean n=2) [1]	residual activity [2]	residual activity [3]	residual activity [4]	residual activity [5]	residual activity [6]	residual activity [7]	residual activity [8]	residual activity [9]	residual activity [10]	residual activity [11]	residual activity [12]	residual activity [13]	residual activity [14]	residual activity [15]	residual activity [16]	residual activity [17]	residual activity [18]	residual activity [19]	residual activity [20]	also measured
O=C(NS(=O)(=O)c1ccc(NCC2CCOCC2)c([N+](=O)[O-])c1)c1ccc(N2CCN(Cc3ccc(C(F)(F)F)cc3-c3ccc(Cl)cc3)CC2)cc1Oc1cnc2[nH]ccc2c1 [A-1210227]	-44.1%	100%	100%	96%	100%	91%	100%	80%	98%	84%	100%	100%	81%	100%	100%	100%	100%	100%	85%	51%	residual activity [21]: 60%; residual activity [22]: 100%; residual activity [23]: 100%; residual activity [24]: 100%; residual activity [25]: 87%; residual activity [26]: 82%; residual activity [27]: 79%; inhibition [28]: -6.27%; inhibition [29]: 34.2%; inhibition [30]: -6.07%; inhibition [31]: 10%
CO[C@H]1CC[C@H](CNc2ccc(S(=O)(=O)NC(=O)c3ccc(N4CCN(CC5=C(c6ccc(Cl)cc6)CC(C)(C)CC5)CC4)cc3Oc3cnc4[nH]ccc4c3)cc2[N+](=O)[O-])CC1 [A-1211212]	1.6%	93%	73%	100%	85%	68%	91%	100%	4.4%	68%	82%	59%	93%	96%	100%	95%	100%	100%	90%	74%	residual activity [21]: 75%; residual activity [22]: 89%; residual activity [23]: 89%; residual activity [24]: 100%; residual activity [25]: 88%; residual activity [26]: 86%; residual activity [27]: 70%; inhibition [28]: 8.17%; inhibition [29]: 28.2%; inhibition [30]: 4.59%; inhibition [31]: 12.5%
